In US9255094B2, “Pyrido[4,3-B]indoles and methods of use” (Medivation Technologies, Inc., priority 2009, dated 2016):

What was measured:
[1] = target: T1, rat adrenergic α1B receptor (Rattus norvegicus, UniProt P15823); assay: Adrenergic α1B radioligand binding assay ([3H]Prozosin); conditions: compound at 0.1 μM; 0.25 nM [3H]Prozosin; Wistar Rat liver; read-out: Percent Inhibition of ligand binding, Adrenergic (0.1 μM) a1B
T1 construct: from tissue; host or cells: Wistar Rat liver
T1 sequence (P15823 1-515): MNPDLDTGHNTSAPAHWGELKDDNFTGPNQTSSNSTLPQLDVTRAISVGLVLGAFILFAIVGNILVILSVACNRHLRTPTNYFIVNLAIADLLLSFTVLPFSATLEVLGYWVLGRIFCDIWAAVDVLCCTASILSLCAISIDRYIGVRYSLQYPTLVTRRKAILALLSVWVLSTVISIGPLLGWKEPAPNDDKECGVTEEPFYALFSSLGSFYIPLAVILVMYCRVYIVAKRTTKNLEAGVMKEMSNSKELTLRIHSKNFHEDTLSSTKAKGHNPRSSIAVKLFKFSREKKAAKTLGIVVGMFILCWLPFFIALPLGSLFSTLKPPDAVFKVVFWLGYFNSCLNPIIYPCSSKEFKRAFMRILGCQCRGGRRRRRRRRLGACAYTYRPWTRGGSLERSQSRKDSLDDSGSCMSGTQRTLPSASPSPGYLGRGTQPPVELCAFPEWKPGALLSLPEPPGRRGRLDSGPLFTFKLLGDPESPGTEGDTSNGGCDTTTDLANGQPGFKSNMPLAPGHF
Description: To evaluate in radioligand binding assays the activity of compounds of the invention, rat adrenergic α1B receptor obtained from Wistar Rat liver (Garcia-S'ainz, J. A. et al., Biochem. Biophys. Res. Commun. 186:760, 1992; Michel A. D. et al., Br. J. Pharmacol. 98:883, 1989) in a modified Tris-HCl buffer (50 mM Tris-HCl buffer, pH 7.4, 0.5 mM EDTA) is used. Compounds of the invention are incubated with 0.25 nM [^3H]Prozosin for 60 min at 25° C. Non-specific binding is estimated in the presence of 10 μM phentolamine. Receptor proteins are filtered and washed, the filters are then counted to determine [^3H]Prozosin specifically bound. Compounds are screened at 1 μM or lower, using 1% DMSO as vehicle. Compounds of the invention are tested in this biochemical assay and percent inhibition of specific binding is determined.

[2] = target: T2, human recombinant serotonin (5-Hydroxytryptamine) 5-HT2C receptor (Homo sapiens, UniProt P28335); assay: Serotonin 5-HT2C radioligand binding assay ([3H]Mesulergine); conditions: compound at 0.1 μM; 1 nM [3H]Mesulergine; CHO-K1 cells; read-out: Percent Inhibition of ligand binding, Serotonin (0.1 μM) 5-HT2C
T2 construct: expressed in transfected cells; host or cells: Chinese hamster ovary (CHO-K1) cells
T2 sequence (P28335 33-458): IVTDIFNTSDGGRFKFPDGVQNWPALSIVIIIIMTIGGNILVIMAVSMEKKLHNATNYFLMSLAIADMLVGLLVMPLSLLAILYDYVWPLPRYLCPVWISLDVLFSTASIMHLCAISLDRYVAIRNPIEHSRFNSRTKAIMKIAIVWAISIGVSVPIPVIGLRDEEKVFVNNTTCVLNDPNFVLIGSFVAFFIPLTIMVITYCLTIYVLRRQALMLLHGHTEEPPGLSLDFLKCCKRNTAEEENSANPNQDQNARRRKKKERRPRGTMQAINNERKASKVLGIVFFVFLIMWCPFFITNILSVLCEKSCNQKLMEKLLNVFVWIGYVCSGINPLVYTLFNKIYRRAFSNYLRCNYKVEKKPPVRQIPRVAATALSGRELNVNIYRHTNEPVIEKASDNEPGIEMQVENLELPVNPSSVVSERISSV
Description: Compounds of the invention were incubated with 1 nM [^3H]Mesulergine for 60 min at 25° C. Non-specific binding was estimated in the presence of 1 μM Mianserin. Receptor proteins were filtered and washed, the filters were then counted to determine [^3H]Mesulergine specifically bound. Compounds were screened at 1 μM or lower, using 1% DMSO as vehicle. Biochemical assay results are presented as the percent inhibition of specific binding in Table 4.

[3] = target: T3, human recombinant serotonin (5-Hydroxytryptamine) 5-HT5A receptor (Homo sapiens, UniProt P47898); assay: Serotonin 5-HT5A radioligand binding assay ([3H]LSD); conditions: compound at 0.1 μM; 1.7 nM [3H]LSD; CHO-K1 cells; read-out: Percent Inhibition of ligand binding, Serotonin (0.1 μM) 5-HT5A
T3 construct: expressed in transfected cells; host or cells: Chinese hamster ovary (CHO-K1) cells
T3 sequence (P47898 whole entry): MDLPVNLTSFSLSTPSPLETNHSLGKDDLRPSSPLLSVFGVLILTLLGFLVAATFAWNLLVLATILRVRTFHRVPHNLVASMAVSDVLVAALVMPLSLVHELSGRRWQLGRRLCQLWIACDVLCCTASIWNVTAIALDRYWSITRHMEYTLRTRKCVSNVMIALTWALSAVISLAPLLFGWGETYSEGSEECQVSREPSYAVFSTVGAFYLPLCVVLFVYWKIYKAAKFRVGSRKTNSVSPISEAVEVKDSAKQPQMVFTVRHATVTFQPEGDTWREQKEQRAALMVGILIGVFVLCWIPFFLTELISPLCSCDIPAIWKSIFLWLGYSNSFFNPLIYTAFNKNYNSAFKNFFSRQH
Description: Compounds of the invention were incubated with 1.7 nM [^3H]Lysergic acid diethylamide (LSD) for 60 min at 37° C. […] Receptor proteins were filtered and washed, the filters were then counted to determine [^3H]LSD specifically bound. Compounds were screened at 1 μM or lower, using 1% DMSO as vehicle. Compounds of the invention were tested in this biochemical assay and percent inhibition of specific binding was determined. Biochemical assay results are presented as the percent inhibition of specific binding in Table 4.

[4] = target: human recombinant serotonin (5-Hydroxytryptamine) 5-HT7 receptor (Homo sapiens, UniProt P34969); assay: Serotonin 5-HT7 radioligand binding assay ([3H]LSD); conditions: compound at 0.1 μM; 5.5 nM [3H]LSD; CHO cells; read-out: Percent Inhibition of ligand binding, Serotonin (0.1 μM) 5-HT7
human recombinant serotonin (5-Hydroxytryptamine) 5-HT7 receptor, sequence (P34969 whole entry): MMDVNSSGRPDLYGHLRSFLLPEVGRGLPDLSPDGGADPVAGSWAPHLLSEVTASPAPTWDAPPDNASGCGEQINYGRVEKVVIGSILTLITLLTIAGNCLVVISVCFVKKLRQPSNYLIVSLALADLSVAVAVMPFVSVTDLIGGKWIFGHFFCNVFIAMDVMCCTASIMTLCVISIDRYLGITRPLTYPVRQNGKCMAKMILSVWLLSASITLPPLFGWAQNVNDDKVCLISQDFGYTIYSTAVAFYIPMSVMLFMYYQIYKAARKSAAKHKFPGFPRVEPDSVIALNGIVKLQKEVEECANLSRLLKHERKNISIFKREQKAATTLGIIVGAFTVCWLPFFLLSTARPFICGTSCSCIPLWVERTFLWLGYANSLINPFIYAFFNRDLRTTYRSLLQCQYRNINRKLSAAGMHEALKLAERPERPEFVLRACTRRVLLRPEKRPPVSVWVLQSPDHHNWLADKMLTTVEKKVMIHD
Description: Compounds of invention were incubated with 5.5 nM [^3H] Lysergic acid diethylamide (LSD) for 2 h at 25° C. […] Receptor proteins were filtered and washed, the filters were then counted to determine [^3H]LSD specifically bound. Compounds were screened at 1 μM or lower, using 1% DMSO as vehicle. Biochemical assay results are presented as the percent inhibition of specific binding in Table 4.

Structure (SMILES)	inhibition at 0.1 µM [1] [%]	inhibition at 0.1 µM [2] [%]	inhibition at 0.1 µM [3] [%]	inhibition at 0.1 µM [4] [%]
CC[C@](O)(Cn1c2c(c3cc(C)ccc31)CN(C)CC2)c1ccncc1 [Compound 1-63, (R)-1-(2,8-Dimethyl-3,4-dihydro-1H-pyrido[4,3-b]indol-5(2H)-yl)-2-(pyridine-4-yl)butan-2-ol]	5	25	15	25
Cc1ccc2c(c1)c1c(n2CCc2ccc(C)nc2)CCN(CC(F)(F)F)C1 [Compound 1-65, 8-methyl-5-(2-(6-methylpyridin-3-yl)ethyl)-2-(2,2,2-trifluoroethyl)-2,3,4,5-tetrahydro-1H-pyrido[4,3-b]indole]	-4	6	-12	-15
CC[C@@](O)(Cn1c2c(c3cc(C)ccc31)CN(C)CC2)c1ccc(F)cc1 [Compound 1-66, (S)-1-(2,8-dimethyl-3,4-dihydro-1H-pyrido[4,3-b]indol-5(2H)-yl)-2-(4-fluorophenyl)butan-2-ol]	11	84	31	19
CCCC[C@@](O)(Cn1c2c(c3cc(Cl)ccc31)CN(C)CC2)c1ccc(F)cc1 [Compound 1-67, (S)-1-(8-chloro-2-methyl-3,4-dihydro-1H-pyrido[4,3-b]indol-5(2H)-yl)-2-(4-fluorophenyl)hexan-2-ol]	-2	51	-11	-8
